From patent publication US9340537B2, “Benzamide derivatives for inhibiting the activity of ABL1, ABL2 and BCR-ABL1” (NOVATIS AG, priority 2012, dated 2016)

How the values were obtained:
ABL1 (64-515) [1] = molecular target: T1, ABL1 (64-515) (Homo sapiens (Human), UniProt P00519); assay: Caliper ABL1 (64-515) microfluidic mobility shift kinase assay; details: read-out: Caliper ABL1 (64-515) IC50
ABL1 (64-515) [2] = molecular target: T1, ABL1 (64-515); assay: Radio ABL1 (64-515) radiometric filter-binding kinase assay; type: biochemical; details: 20 μM ATP

T1 sequence (P00519 64-515): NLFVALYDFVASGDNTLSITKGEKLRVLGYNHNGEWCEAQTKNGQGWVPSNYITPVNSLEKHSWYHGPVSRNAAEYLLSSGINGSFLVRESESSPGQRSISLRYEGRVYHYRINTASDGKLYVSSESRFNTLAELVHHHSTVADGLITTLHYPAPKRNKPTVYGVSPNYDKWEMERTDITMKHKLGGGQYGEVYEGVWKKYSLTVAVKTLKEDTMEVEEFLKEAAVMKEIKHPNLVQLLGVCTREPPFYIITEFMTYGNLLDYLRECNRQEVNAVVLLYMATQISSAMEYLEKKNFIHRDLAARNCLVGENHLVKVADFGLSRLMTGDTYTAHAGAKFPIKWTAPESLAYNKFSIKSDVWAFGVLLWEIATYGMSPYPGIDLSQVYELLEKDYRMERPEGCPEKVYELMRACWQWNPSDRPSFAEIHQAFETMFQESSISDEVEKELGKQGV

Row | IC50 (ABL1 (64-515) [1]) [nM] | IC50 (ABL1 (64-515) [2]) [nM] | Compound
1 | 5.3 |  | O=C(Nc1ccc(OC(F)(F)Cl)cc1)c1cnc(NCCC(O)C(=O)O)c(-c2ccn[nH]2)c1 (centres unmarked) [Example 96, 4-((5-((4-(Chlorodifluoromethoxy)phenyl)carbamoyl)-3-(1H-pyrazol-5-yl)pyridin-2-yl)amino)-2-hydroxybutanoic acid]
2 |  | < 3 | O=C(Nc1ccc(OC(F)(F)F)cc1)c1cnc(N2CC[C@@H](O)C2)c(-c2csc(CO)c2)c1 [Example 12, (R)-5-(5-(Hydroxymethyl)thiophen-3-yl)-6-(3-hydroxypyrrolidin-1-yl)-N-(4-(trifluoromethoxy)phenyl)nicotinamide]
3 | 5.1 |  | O=C(Nc1ccc(OC(F)(F)Cl)cc1)c1cnc(NC[C@H](O)CCO)c(-c2ccn[nH]2)c1 [Example 99, (R)—N-(4-(Chlorodifluoromethoxy)phenyl)-6-((2,4-dihydroxybutyl)amino)-5-(1H-pyrazol-5-yl)nicotinamide]
4 | 47 |  | O=C(O)CCNc1ncc(C(=O)Nc2ccc(OC(F)(F)F)cc2)cc1-c1ccn[nH]1 [Example 95, 3-((3-(1H-Pyrazol-5-yl)-5-((4-(trifluoromethoxy)phenyl)carbamoyl)pyridin-2-yl)amino)propanoic acid]
5 |  | 9 | O=C(Nc1ccc(OC(F)(F)F)cc1)c1cnc(N2CC[C@@H](O)C2)c(-c2cnoc2)c1 [Example 8, (R)-6-(3-Hydroxypyrrolidin-1-yl)-5-(isoxazol-4-yl)-N-(4-(trifluoromethoxy)phenyl)nicotinamide]
6 | 3.7 |  | O=C(Nc1ccc(OC(F)(F)F)cc1)c1cnc(N2C[C@H](O)[C@@H](F)C2)c(-c2ccn[nH]2)c1 (relative stereo) [Example 74, 6-(trans-3-Fluoro-4-hydroxypyrrolidin-1-yl)-5-(1H-pyrazol-5-yl)-N-(4-(trifluoromethoxy)phenyl)nicotinamide]
7 | 0.4 |  | NCC1(O)CCN(c2ncc(C(=O)Nc3ccc(OC(F)(F)Cl)cc3)cc2-c2ccn[nH]2)C1 (centres unmarked) [Example 83, 6-(3-(Aminomethyl)-3-hydroxypyrrolidin-1-yl)-N-(4-(chlorodifluoromethoxy)phenyl)-5-(1H-pyrazol-5-yl)nicotinamide]
8 | 7.8 |  | O=C(Nc1ccc(OC(F)(F)Cl)cc1)c1cnc(NCC[C@H](O)CO)c(-c2ccn[nH]2)c1 [Example 101, (S)—N-(4-(Chlorodifluoromethoxy)phenyl)-6-((3,4-dihydroxybutyl)amino)-5-(1H-pyrazol-5-yl)nicotinamide]
9 | 13 |  | O=C(Nc1ccc(OC(F)(F)Cl)cc1)c1cnc(NCC[C@@H](O)CO)c(-c2ccn[nH]2)c1 [Example 102, (R)—N-(4-(Chlorodifluoromethoxy)phenyl)-6-((3,4-dihydroxybutyl)amino)-5-(1H-pyrazol-5-yl)nicotinamide]
10 | 3.3 |  | O=C(Nc1ccc(OC(F)(F)F)cc1)c1cnc(N2CCCC2)c(-c2cc(CO)n[nH]2)c1 [Example 43, 5-(3-(Hydroxymethyl)-1H-pyrazol-5-yl)-6-(pyrrolidin-1-yl)-N-(4-(trifluoromethoxy)phenyl)nicotinamide]
11 | 6.6 |  | O=C(Nc1ccc(OC(F)(F)Cl)cc1)c1cnc(NCCC(O)CO)c(-c2ccn[nH]2)c1 (centres unmarked) [Example 100, N-(4-(Chlorodifluoromethoxy)phenyl)-6-((3,4-dihydroxybutyl)amino)-5-(1H-pyrazol-5-yl)nicotinamide]
12 | 5.7 |  | O=C(Nc1ccc(OC(F)(F)Cl)cc1)c1cnc(NC[C@@H](O)CCO)c(-c2ccn[nH]2)c1 [Example 98, (S)—N-(4-(Chlorodifluoromethoxy)phenyl)-6-((2,4-dihydroxybutyl)amino)-5-(1H-pyrazol-5-yl)nicotinamide]
13 | 5.7 |  | O=C(Nc1ccc(OC(F)(F)Cl)cc1)c1cnc(NCC(O)CCO)c(-c2ccn[nH]2)c1 (centres unmarked) [Example 97, N-(4-(Chlorodifluoromethoxy)phenyl)-6-((2,4-dihydroxybutyl)amino)-5-(1H-pyrazol-5-yl)nicotinamide]
14 | 23 |  | O=C(O)CCNc1ncc(C(=O)Nc2ccc(OC(F)(F)Cl)cc2)cc1-c1ccn[nH]1 [Example 94, 3-((5-((4-(Chlorodifluoromethoxy)phenyl)carbamoyl)-3-(1H-pyrazol-5-yl)pyridin-2-yl)amino)propanoic acid]
